ChEMBL document CHEMBL1201862, “PubChem BioAssay data set” (2004)
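Tested at 5 concentrations; 48 h exposure; 96-well plates; endpoints linearly interpolated, else capped at highest concentration. GI50 = concentration required for 50% inhibition of growth.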 Calls of active or inactive are those of the source. Rule as the data show it: active = GI50 up to about 1.1 µM and inactive = higher.

How the values were obtained:
Test in all cases: DTP human tumour cell line panel, 48 h
[1] = system: HCT-116
[2] = system: U-251
[3] = system: SNB-19
[4] = system: TK-10
[5] = system: IGROV-1
[6] = system: OVCAR-4
[7] = system: LOX IMVI
[8] = system: UACC-62
[9] = system: HL-60
[10] = system: K562
[11] = system: HOP-62
[12] = system: NCI-H460
[13] = system: SNB-75
[14] = system: COLO 205
[15] = system: SF-539
[16] = system: SN12C
[17] = system: CCRF-CEM
[18] = system: Malme-3M
[19] = system: DU-145
[20] = system: HCC 2998
[21] = system: MDA-MB-435
[22] = system: NCI-H23
[23] = system: BT-549
[24] = system: SK-MEL-5
[25] = system: SK-MEL-2
[26] = system: SW-620
[27] = system: SK-MEL-28
[28] = system: RXF 393
[29] = system: SF-268
[30] = system: NCI-H226
[31] = system: HT-29
[32] = system: ACHN
[33] = system: KM12
[34] = system: MDA-N
[35] = system: UACC-257
[36] = system: MCF7
[37] = system: SK-OV-3
[38] = system: MDA-MB-231
[39] = system: A498
[40] = system: RPMI-8226
[41] = system: OVCAR-8
[42] = system: MOLT-4
[43] = system: HCT-15
[44] = system: SF-295
[45] = system: UO-31
[46] = system: NCI/ADR-RES
[47] = system: 786-0
[48] = system: A549
[49] = system: EKVX
[50] = system: T47D
[51] = system: M14
[52] = system: PC-3
[53] = system: OVCAR-3
[54] = system: CAKI-1
[55] = system: OVCAR-5
[56] = system: NCI-H522
[57] = system: HOP-92
[58] = system: SR

Measured: GI50

COc1ccccc1NC(=S)Nc1cc(C)cc(C)n1
> 100 µM: [43]
inactive: [1] > 100 µM | [2] > 100 µM | [3] > 100 µM | [4] > 100 µM | [5] > 100 µM | [6] > 100 µM | [7] > 100 µM | [8] > 100 µM | [9] > 100 µM | [10] > 100 µM | [11] > 63 µM | [12] > 100 µM | [13] > 49.4 µM | [14] > 100 µM | [15] > 100 µM | [16] > 100 µM | [17] > 100 µM | [18] > 100 µM | [19] > 100 µM | [20] > 100 µM | [21] > 100 µM | [22] > 100 µM | [23] > 100 µM | [24] > 100 µM | [25] > 100 µM | [26] > 100 µM | [27] > 100 µM | [28] > 100 µM | [29] > 100 µM | [30] > 100 µM | [31] > 100 µM | [32] > 100 µM | [33] > 100 µM | [34] > 100 µM | [35] > 100 µM | [36] > 100 µM | [37] > 100 µM | [38] > 100 µM | [39] > 100 µM | [40] > 100 µM | [41] > 100 µM | [42] > 100 µM | [44] > 100 µM | [45] > 100 µM | [46] > 100 µM | [47] > 100 µM | [48] > 100 µM | [49] > 100 µM | [50] > 100 µM | [51] > 100 µM | [52] > 89.9 µM | [53] > 70.8 µM | [54] > 100 µM | [55] > 100 µM

CCn1cnc2c(NC(C)=O)ncnc21
inactive: [1] > 100 µM | [2] > 100 µM | [3] > 100 µM | [4] > 100 µM | [5] > 100 µM | [6] > 100 µM | [7] > 100 µM | [8] > 100 µM | [10] > 100 µM | [11] > 100 µM | [12] > 100 µM | [13] 1.33 µM | [14] > 100 µM | [15] > 100 µM | [16] > 100 µM | [17] > 100 µM | [18] > 100 µM | [56] > 100 µM | [19] > 100 µM | [20] > 100 µM | [21] > 100 µM | [22] > 100 µM | [23] > 100 µM | [24] > 100 µM | [25] > 100 µM | [26] > 100 µM | [27] > 100 µM | [28] > 100 µM | [30] > 100 µM | [31] > 100 µM | [32] > 100 µM | [33] > 100 µM | [34] > 100 µM | [35] > 100 µM | [36] > 100 µM | [37] > 100 µM | [38] > 100 µM | [40] > 100 µM | [41] > 100 µM | [42] > 100 µM | [44] > 100 µM | [45] > 100 µM | [46] > 100 µM | [47] > 100 µM | [48] > 100 µM | [49] > 100 µM | [50] > 100 µM | [51] > 100 µM | [57] > 100 µM | [52] > 100 µM | [53] > 100 µM | [54] > 100 µM | [55] > 100 µM
> 100 µM: [43]

COC(=O)C1=C(O)C(C(=O)OC)[C@]2(O)[C@@H](C(=O)OC)[C@H]1[C@H](C)[C@@H](c1ccccc1)[C@@H]2C(=O)OC (stereo not given in full)
inactive: [1] 60.3 µM | [2] > 100 µM | [3] > 100 µM | [4] > 100 µM | [5] 16.8 µM | [6] 80 µM | [7] 53.7 µM | [8] 65.5 µM | [9] 26.4 µM | [10] 57.4 µM | [11] > 100 µM | [12] 69.2 µM | [13] > 100 µM | [14] 77.3 µM | [15] > 100 µM | [16] 66.4 µM | [17] 23.2 µM | [18] 42.2 µM | [56] 18.9 µM | [19] > 100 µM | [21] 46.1 µM | [22] 44.4 µM | [23] 38.8 µM | [24] 36.2 µM | [25] 96.4 µM | [26] 44.3 µM | [27] > 100 µM | [28] > 100 µM | [29] 70.8 µM | [30] 78.9 µM | [31] > 100 µM | [32] 91.8 µM | [33] > 100 µM | [34] 29.2 µM | [35] > 100 µM | [37] > 100 µM | [38] > 100 µM | [41] 54.2 µM | [42] 85.9 µM | [44] 78.2 µM | [46] 40.7 µM | [47] 62.2 µM | [48] 56.4 µM | [49] 55.7 µM | [50] > 100 µM | [51] 88.1 µM | [52] 61.5 µM | [53] 54 µM | [54] > 100 µM | [55] > 100 µM
57.8 µM: [43]

O=c1c2cc(Br)ccc2oc2ccc(Br)cc12
> 100 µM: [43]
inactive: [1] 82.2 µM | [2] 64.6 µM | [3] > 100 µM | [4] > 100 µM | [5] > 100 µM | [6] 46.3 µM | [8] > 100 µM | [9] > 100 µM | [10] > 100 µM | [12] > 100 µM | [13] 24.7 µM | [14] > 100 µM | [15] > 100 µM | [16] > 100 µM | [17] > 100 µM | [18] > 100 µM | [56] > 100 µM | [19] 84.1 µM | [20] > 100 µM | [21] > 100 µM | [22] > 100 µM | [23] > 100 µM | [24] > 100 µM | [25] > 100 µM | [26] > 100 µM | [27] > 100 µM | [28] > 100 µM | [29] > 100 µM | [30] > 100 µM | [31] > 100 µM | [32] > 100 µM | [33] > 100 µM | [34] > 100 µM | [35] > 100 µM | [36] 27.5 µM | [38] > 100 µM | [39] > 100 µM | [40] > 100 µM | [41] > 100 µM | [42] > 100 µM | [44] > 100 µM | [45] > 100 µM | [46] > 100 µM | [47] 64.7 µM | [48] > 100 µM | [50] 81.3 µM | [51] > 100 µM | [57] > 100 µM | [52] > 100 µM | [53] 71.8 µM | [54] > 100 µM | [55] > 100 µM

CC(C)Sc1nc(C#N)cc2c1CCCC2
inactive: [1] 44.7 µM | [2] 46.5 µM | [3] > 100 µM | [4] > 100 µM | [5] 96.2 µM | [6] 53.1 µM | [7] 25.4 µM | [8] 91.8 µM | [10] 48.9 µM | [11] 85.7 µM | [12] 48.9 µM | [13] > 100 µM | [14] 20.1 µM | [15] 42.5 µM | [16] 51.3 µM | [17] 24.8 µM | [18] 36.1 µM | [56] 21.1 µM | [19] > 100 µM | [20] 74.8 µM | [21] 47 µM | [22] 58.9 µM | [23] 99.1 µM | [24] 15.8 µM | [25] 23.2 µM | [26] 37.8 µM | [58] 20.7 µM | [27] 29.7 µM | [28] 27.7 µM | [29] 50.7 µM | [30] 40.6 µM | [31] > 100 µM | [32] 40.6 µM | [33] 28.6 µM | [34] 37.7 µM | [35] 39.9 µM | [36] 39.4 µM | [37] 72.9 µM | [38] 57.1 µM | [39] 37.1 µM | [40] 26.4 µM | [41] 63.5 µM | [42] 19.5 µM | [44] 40.9 µM | [45] 47.6 µM | [46] 39.2 µM | [47] 54 µM | [48] 37.1 µM | [49] 49.4 µM | [50] 56.9 µM | [51] 48.6 µM | [57] 33.5 µM | [52] 38.2 µM | [53] 30.3 µM | [54] > 100 µM | [55] > 100 µM
37.6 µM: [43]
